What was measured:
[1] = mn = molality of the nth substance listed, in mol/kg; settings: 101.3 kPa, Liquid; for viscosity: Capillary tube (Ostwald / Ubbelohde) method; for mass density: Pycnometric method; for speed of sound: Single path-length method
[2] = refractive index (Na D-line) (dimensionless); mn = molality of the nth substance listed, in mol/kg; settings: 101.3 kPa, Liquid, Standard Abbe refractometry

O=C1O[C@H]([C@@H](O)CO)C(O)=C1O [L-ascorbic acid] + O
Settings | mass density, [1] [kg/m3] | refractive index, [2] | speed of sound, [1] [m/s] | viscosity, [1] [mPa·s]
278.15 K, m1 = 0.0502 | 1003.69 | 1.3353 | 1429.5 | 1.566
278.15 K, m1 = 0.0997 | 1007.29 | 1.3365 | 1432.8 | 1.606
278.15 K, m1 = 0.1384 | 1010.1 | 1.3378 | 1434.7 | 1.634
278.15 K, m1 = 0.1964 | 1014.25 | 1.3394 | 1438.5 | 1.668
278.15 K, m1 = 0.2338 | 1016.85 | 1.3405 | 1440.5 | 1.699
278.15 K, m1 = 0.2927 | 1020.96 | 1.3419 | 1443.6 | 1.737
278.15 K, m1 = 0.3392 | 1024.27 | 1.3434 | 1445.3 | 1.77
278.15 K, m1 = 0.4069 | 1028.56 | 1.3448 | 1448.9 | 1.813
278.15 K, m1 = 0.4383 | 1030.63 | 1.3459 | 1451.3 | 1.842
278.15 K, m1 = 0.4932 | 1034.36 | 1.3472 | 1454.6 | 1.874
278.15 K, m1 = 0.5541 | 1038.24 | 1.3489 | 1458.2 | 1.921
278.15 K, m1 = 0.6251 | 1042.79 | 1.351 | 1463.2 | 1.974
278.15 K, m1 = 0.711 | 1048.36 | 1.3533 | 1467.3 | 2.033
278.15 K, m1 = 0.7457 | 1050.45 | 1.3544 | 1469.1 | 2.05
288.15 K, m1 = 0.0496 | 1002.68 | 1.3348 | 1468.6 | 1.165
288.15 K, m1 = 0.1009 | 1006.33 | 1.3364 | 1471.2 | 1.184
288.15 K, m1 = 0.1408 | 1009.14 | 1.3378 | 1473.2 | 1.205
288.15 K, m1 = 0.1952 | 1012.94 | 1.339 | 1476.3 | 1.236
288.15 K, m1 = 0.2426 | 1016.2 | 1.34 | 1479 | 1.257
288.15 K, m1 = 0.2997 | 1020.14 | 1.3417 | 1481.7 | 1.282
288.15 K, m1 = 0.3402 | 1022.83 | 1.3428 | 1483.8 | 1.288
288.15 K, m1 = 0.3936 | 1026.48 | 1.3441 | 1487.6 | 1.325
288.15 K, m1 = 0.4492 | 1030.03 | 1.3456 | 1489.1 | 1.353
288.15 K, m1 = 0.5096 | 1034.09 | 1.3471 | 1492.7 | 1.386
288.15 K, m1 = 0.5782 | 1038.38 | 1.3489 | 1496.4 | 1.424
288.15 K, m1 = 0.6302 | 1041.56 | 1.3499 | 1499.1 | 1.444
288.15 K, m1 = 0.6984 | 1046.01 | 1.352 | 1501.6 | 1.475
288.15 K, m1 = 0.7426 | 1048.42 | 1.3529 | 1503.6 | 1.494
298.15 K, m1 = 0.0502 | 1000.6 | 1.3339 | 1498.9 | 0.9072
298.15 K, m1 = 0.1017 | 1004.18 | 1.3354 | 1501.5 | 0.9235
298.15 K, m1 = 0.1409 | 1006.8 | 1.3365 | 1503.4 | 0.935
298.15 K, m1 = 0.1988 | 1010.73 | 1.338 | 1505.2 | 0.9544
298.15 K, m1 = 0.2402 | 1013.54 | 1.3391 | 1506.7 | 0.9688
298.15 K, m1 = 0.2987 | 1017.33 | 1.3407 | 1508.9 | 0.9928
298.15 K, m1 = 0.3421 | 1020.12 | 1.3418 | 1510.9 | 1.007
298.15 K, m1 = 0.4046 | 1024.34 | 1.3431 | 1514.2 | 1.028
298.15 K, m1 = 0.4536 | 1027.31 | 1.3443 | 1518.2 | 1.046
298.15 K, m1 = 0.5119 | 1030.98 | 1.3461 | 1520 | 1.068
298.15 K, m1 = 0.5788 | 1035.16 | 1.3478 | 1521.8 | 1.093
298.15 K, m1 = 0.6259 | 1038.06 | 1.3497 | 1523.6 | 1.111
298.15 K, m1 = 0.6974 | 1042.37 | 1.3508 | 1525.5 | 1.141
298.15 K, m1 = 0.7486 | 1045.37 | 1.3518 | 1527.3 | 1.164

Source: the NIST ThermoML archive (doi:10.1016/j.jct.2013.08.016)
